Legend:
[1] = system: anterior capsule of the crystalline lens; assay: Vital dye staining of the anterior lens capsule to visualise the CCC; conditions: absence of a red fundus reflex
From the text: It is possible to use a number of vital dyes already known today, but also such which may become available in the future as the visualising agent. […] These include azophlozin, basic blue, Bismarck brown, basis red, bengal red, brilliant cresyl blue, eosin, fluorescein, gentian violet, indocyanine green, Janus green, methylene green, methylene blue, neutral red and others.

[2] = system: corneal endothelial cells; conditions: earlier use to stain corneas prior to corneal transplants; cited from earlier work

Molecule: brilliant cresyl blue
- staining of the anterior capsule sufficient to visualise the CCC ([1]; dye 1%): stained the anterior capsule sufficiently to visualise the CCC

Molecule: Cc1cc(-c2ccc(/N=N/c3c(S(=O)(=O)O)cc4cc(S(=O)(=O)O)cc(N)c4c3O)c(C)c2)ccc1/N=N/c1c(S(=O)(=O)O)cc2cc(S(=O)(=O)O)cc(N)c2c1O [trypan blue]
- staining of the anterior capsule sufficient to visualise the CCC ([1]; dye 0.1%): stained the anterior capsule sufficiently to visualise the CCC
- tolerance of corneal endothelium to vital staining, endothelial cell counts [2]: without a reduction in endothelial cell counts

Molecule: CN(C)c1ccc2nc3ccc(=[N+](C)C)cc-3sc2c1 [methylene blue]
- staining of the anterior capsule sufficient to visualise the CCC ([1]; dye 5%): stained the anterior capsule sufficiently to visualise the CCC

Molecule: CN(C)c1ccc(C(=C2C=CC(=[N+](C)C)C=C2)c2ccc(N(C)C)cc2)cc1 [gentian violet]
- staining of the anterior capsule sufficient to visualise the CCC ([1]; dye 2%): stained the anterior capsule sufficiently to visualise the CCC

— patent US20050031540A1, “Visco dye” (priority 2001, published 2005)
